Structures can show the parent of a compound that is named as a salt.
Legend:
alpha-1-receptor = biological target: T1, alpha-1-receptor (Rattus norvegicus, UniProt P15823); assay: Radioligand binding, alpha-1 adrenoceptor ([3H]-pyrazosin, rat liver homogenates)
T1 sequence (P15823 1-515): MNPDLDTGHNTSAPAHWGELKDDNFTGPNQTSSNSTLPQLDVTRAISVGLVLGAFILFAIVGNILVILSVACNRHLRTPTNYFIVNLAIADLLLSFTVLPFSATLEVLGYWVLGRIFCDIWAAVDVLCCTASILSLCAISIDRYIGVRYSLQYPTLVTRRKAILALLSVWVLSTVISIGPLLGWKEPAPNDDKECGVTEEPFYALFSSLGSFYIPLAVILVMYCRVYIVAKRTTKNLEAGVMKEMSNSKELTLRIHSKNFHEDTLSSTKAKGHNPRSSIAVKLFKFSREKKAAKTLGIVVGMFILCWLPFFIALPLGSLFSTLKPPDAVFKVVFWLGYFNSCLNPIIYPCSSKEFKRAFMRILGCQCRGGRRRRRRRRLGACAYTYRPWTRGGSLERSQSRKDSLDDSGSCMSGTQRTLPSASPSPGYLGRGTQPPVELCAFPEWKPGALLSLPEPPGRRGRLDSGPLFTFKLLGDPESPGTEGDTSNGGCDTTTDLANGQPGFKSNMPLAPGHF

alpha-2-receptor = assay: Radioligand binding, alpha-2 adrenoceptor ([3H]-rauwolscine, rat cerebral cortices)
[1] = test system: normal eyes of rabbits (intraocular pressure); assay: Antiglaucoma activity: intraocular pressure after instillation into normal eyes of rabbits; type: in vivo, male, albino New Zealand rabbits
Procedure: In order to evaluate antiglaucoma activity, the test compounds were dissolved in the vehicle, a 0.2% aqueous solution of hydroxymethylcellulose at various concentrations such as 0.03%, 0.1%, or 0.3%. Comparisons were made to the reference standard, pilocarpine hydrochloride which was dissolved in the vehicle at a concentration of 0.5%. Control treatment was a volume dose of vehicle.
Male, albino New Zealand rabbits (Scientific Animal Farms and/or Kuiper's Rabbit Ranch) weighing 2.06-2.5 kg were used in the study. Intraocular pressures were obtained in the normal eyes of the animals using a Bausch and Lomb Applamatic Tonometer. Three separate sessions provided the baseline pressures for each eye. The test compound or vehicle (0.1 mL) was instilled into the eyes of 6 different rabbits according to a randomized dosing schedule. Intraocular pressures were taken at 5, 15, 30, 45, 60, 90 and 120 minutes after instillation of the test compounds.
Statistical treatment was by one-way analysis of variance. Results are shown (Table 1) for a representative sample of the compounds claimed.

[2] = 5 minutes after administration, 0.3% solution, 0.1 mL instilled
[3] = 15 minutes after administration, 0.3% solution, 0.1 mL instilled
[4] = 90 minutes after administration, 0.3% solution, 0.1 mL instilled
[5] = 120 minutes after administration, 0.3% solution, 0.1 mL instilled

Row | Compound | Ki (alpha-1-receptor) | Ki (alpha-2-receptor) | Percent Change in IOP vs Baseline [1, 2] | Percent Change in IOP vs Baseline [1, 3] | Percent Change in IOP vs Baseline [1, 4] | Percent Change in IOP vs Baseline [1, 5] | also measured
1 | COc1ccc2c(c1)CCN(CCCc1cccs1)C2.Cl [Example 2, 1,2,3,4-Tetrahydro-6-methoxy-N-3-(2-thienyl)propylisoquinoline hydrochloride] | 150 nM | 4.3 nM | -50% | -41% | -13% | +8% | 
2 | COc1ccc2c(c1)CCN(CCCc1cccc(F)c1)C2 [Example 5, 1,2,3,4-Tetrahydro-6-methoxy-N-3-(m-fluorophenyl)propyl isoquinoline hydrochloride] | 206 nM | 4.6 nM |  |  |  |  | 
3 | COc1ccc2c(c1)CCN(CCCc1ccco1)C2 [Example 6, 1,2,3,4-Tetrahydro-6-methoxy-N-3-(2-furyl)propylisoquinoline hydrochloride] | 154 nM | 2.2 nM |  |  |  |  | 
4 | COc1ccc2c(c1)CCN(CCCc1ccccc1)C2 [Example 7, 1,2,3,4-Tetrahydro-6-methoxy-N-(3-phenylpropyl)isoquinoline hydrochloride] | 217 nM | 5.9 nM |  |  |  |  | 
5 | COc1cccc(CCCN2CCc3cc(OC)ccc3C2)c1 [Example 8, 1,2,3,4-Tetrahydro-6-methoxy-N-3-(3-methoxyphenyl)propyl isoquinoline hydrochloride] | 174 nM | 10.7 nM |  |  |  |  | 
6 | Cc1ccc2c(c1)CCN(CCCc1ccccc1)C2 [Example 13, 1,2,3,4-Tetrahydro-6-methyl-N-(3-(phenylpropylisoquinoline Hydrochloride] | 114 nM | 5.6 nM |  |  |  |  | 
7 | CC(C)(C)C(=O)Oc1ccc2c(c1)CCN(CCCc1cccs1)C2.CS(=O)(=O)O [Example 16, 1,2,3,4-Tetrahydro-6-trimethylacetoxy-N-3-(2-thienyl)propylisoquinoline methane sulfonate] |  |  | -11% | -12% | -36% | -4% | 
8 | CN(C)C(=O)Oc1ccc2c(c1)CCN(CCCc1cccs1)C2.CS(=O)(=O)O [Example 18, 1,2,3,4-Tetrahydro-6-((dimethylamino)carbonyl)oxy-2-N-(3-(2-thienyl)propyl)isoquinoline methane sulfonate] |  |  | -38% | -26% | -48% | -12% | 
9 | CC[C@@H]1C(=O)OC[C@@H]1Cc1cncn1C [Pilocarpine, pilocarpine hydrochloride, reference compound] |  |  |  |  |  |  | Percent Change in IOP vs Baseline ([1]; 15 minutes after administration, 0.5% solution (reference standard)): -22%; Percent Change in IOP vs Baseline ([1]; 90 minutes after administration, 0.5% solution (reference standard)): -20%; Percent Change in IOP vs Baseline ([1]; 120 minutes after administration, 0.5% solution (reference standard)): -33%

Reference: patent US4963563A, “6-substituted-1,2,3,4-tetrahydroisoquinolines” (Abbott Laboratories, priority 1989, dated 1990)
